Laboratory results from patent US9145424B2, “Treatment of amyotrophic lateral sclerosis” (Northwestern University, priority 2008, dated 2015).
Read-outs that look alike come from different tables or passages of the source.

Tested on: PC12 cells that express mutant G93A SOD1
Experiment: Mutant SOD1-induced cytotoxicity protection assay
Details: for Corresponding % viability: rat, 48 h
Experimental: This idea was tested by examining the sensitivity of PC12 cells to SOD1 aggregates in the presence and absence of proteasome inhibitor MG132. PC12 cells expressing no SOD1, wild type SOD1, G85R SOD1 or G93A SOD1 were grown with or without MG132 (FIG. 1).
PC12 cells expressing G93A SOD1 were treated with 100 nM MG132 with or without co-treatment with geldanamycin or radicicol.

[1] = Rattus norvegicus, PC-12, read-out: Best EC50, PC12 G93A SOD1 cells, MG132, calcein-AM viability
[2] = Rattus norvegicus, PC-12, read-out: EC50 after Normalization, normalised with the corresponding 3299 EC50
[3] = read-out: Best EC50, PC12 G93A SOD1 cells, MG132, calcein-AM viability
[4] = read-out: EC50 after Normalization, normalised with the corresponding 3299 EC50

Row | SMILES | EC50 [1] [nM] | Corresponding % viability [%] | EC50 [2] [nM] | EC50 [3] [nM] | EC50 [4] [nM]
1 | O=c1cc(CSc2ccccc2)[nH][nH]1 [CMB-053526-1] | 6850 | 77 | – | – | –
2 | CC(C)(C)c1ccc(SCc2cc(=O)[nH][nH]2)cc1 [CMB-053527-1] | 5380 | 150 | 2310 | – | –
3 | O=c1cc(CSc2ccc([N+](=O)[O-])cc2)[nH][nH]1 [CMB-053528-1] | 5590 | 136 | 2400 | – | –
4 | O=c1cc(CSc2ccc(Cl)cc2)[nH][nH]1 [CMB-053529-1] | – | 93 | 1930 | 4490 | –
5 | O=C1NN=C(CSc2ccccc2)C1=Cc1ccccc1 [CMB-053530-1] | > 32000 | – | – | – | –
6 | O=c1cc(CSc2ccc(Br)cc2)[nH][nH]1 [CMB-053543-1] | 4240 | 94 | 1800 | – | –
7 | O=c1cc(CSc2ccc(Cl)c(Cl)c2)[nH][nH]1 [CMB-053544-1] | 2600 | 113 | 1890 | – | –
8 | O=c1cc(CSc2ccc(Cl)cc2Cl)[nH][nH]1 [CMB-053545-1] | 1580 | 124 | 1150 | – | –
9 | O=c1cc(CSc2ccc(Cl)cc2)[nH]n1-c1ccccc1 [CMB-086473-1] | 5110 | 109 | 3460 | – | –
10 | O=c1cc(C[S+]([O-])c2ccc(Cl)cc2)[nH]n1-c1ccccc1 (stereo not shown) [CMB-086474-1] | > 32000 | – | – | – | –
11 | O=c1cc(CS(=O)(=O)c2ccc(Cl)cc2)[nH][nH]1 [CMB-086475-1] | 6920 | 110 | 4700 | – | –
12 | CN(C)c1ccc(SCc2cc(=O)[nH][nH]2)cc1 [CMB-086476-1] | 1650 | 77 | – | – | –
13 | COc1ccc(SCc2cc(=O)[nH][nH]2)cc1 [CMB-086477-1] | 4210 | 102 | 1810 | – | –
14 | O=c1cc(CSc2ccc(F)cc2)[nH][nH]1 [CMB-086478-1] | 4730 | 104 | 3440 | – | –
15 | Cc1ccc(C)c(SCc2cc(=O)[nH][nH]2)c1 [CMB-086479-1] | 220 | 77 | – | – | –
16 | O=c1cc(CSc2c(Cl)cccc2Cl)[nH][nH]1 [CMB-086480-1] | 260 | 142 | 950 | – | –
17 | Cc1cc(SCc2cc(=O)[nH][nH]2)c(C)cc1Cl [CMB-086481-1] | – | 140 | 390 | 430 | –
18 | Cc1cc([S+]([O-])Cc2cc(=O)[nH][nH]2)c(C)cc1Cl (stereo not shown) [CMB-086482-1] | 4470 | 123 | 2880 | – | –
19 | O=c1cc(CSc2ccc(F)cc2Cl)[nH][nH]1 [CMB-086832-1] | 1610 | 68 | – | – | –
20 | O=c1cc(CSc2cccc(Cl)c2)[nH][nH]1 [CMB-086833-1] | 250 | 148 | 1110 | – | –
21 | O=c1cc(CSc2ccccc2Cl)[nH][nH]1 [CMB-086834-1] | 840 | 123 | 3050 | – | –
22 | O=c1cc(CSc2cc(Cl)cc(Cl)c2)[nH][nH]1 [CMB-086835-1] | – | 134 | 170 | 80 | –
23 | O=c1cc(CSc2cc(Cl)cc(Cl)c2)[nH][nH]1 [CMB-086835-2] | – | 129 | – | 300 | 290
24 | O=c1cc(CSc2ccc(Cl)cc2)[nH][nH]1 [CMB-086836-1] | 4140 | 75 | – | – | –
25 | O=c1cc(CSc2ccc(-c3ccccc3)cc2)[nH][nH]1 [CMB-086883-1] | 9440 | 115 | 4060 | – | –

Row | SMILES | EC50 [1] [nM] | Corresponding % viability [%] | EC50 [2] [nM] | EC50 [3] [nM] | EC50 [4] [nM]
26 | CC(C)c1ccccc1SCc1cc(=O)[nH][nH]1 [CMB-086899-1] | 400 | 106 | 480 | – | –
27 | O=c1cc(CSCCOc2ccccc2)[nH][nH]1 [CMB-086900-1] | 6210 | 97 | 7520 | – | –
28 | CCc1ccccc1SCc1cc(=O)[nH][nH]1 [CMB-086901-1] | 2060 | 106 | 2500 | – | –
29 | O=c1cc(COc2ccc(Cl)cc2)[nH][nH]1 [CMB-086902-1] | – | 131 | 650 | 570 | –
30 | O=c1cc(COc2ccc(Cl)cc2)[nH][nH]1 [CMB-086902-2] | – | 117 | – | 690 | 790
31 | O=c1cc(COc2ccc(Cl)cc2)[nH][nH]1 [CMB-086902-3] | – | 120 | – | 3430 | 770
32 | CCc1ccc(S(=O)(=O)Cc2cc(=O)[nH][nH]2)cc1 [CMB-087210-1] | 990 | 101 | 900 | – | –
33 | CC(C)c1ccc(S(=O)(=O)Cc2cc(=O)[nH][nH]2)cc1 [CMB-087211-1] | 750 | 103 | 680 | – | –
34 | CCCCc1ccc(S(=O)(=O)Cc2cc(=O)[nH][nH]2)cc1 [CMB-087212-1] | 990 | 93 | 900 | – | –
35 | Cc1cc(S(=O)(=O)Cc2cc(=O)[nH][nH]2)c(C)cc1Cl [CMB-087213-1] | 2280 | 116 | 1470 | – | –
36 | CCc1cccc(OCc2cc(=O)[nH][nH]2)c1 [CMB-087214-1] | 1120 | 125 | 720 | – | –
37 | CC(C)(C)c1cccc(OCc2cc(=O)[nH][nH]2)c1 [CMB-087215-1] | 1060 | 141 | 870 | – | –
38 | O=c1cc(COc2cc(Cl)cc(Cl)c2)[nH][nH]1 [CMB-087229-1] | – | 129 | – | 50 | 67
39 | O=c1cc(COc2cc(Cl)cc(Cl)c2)[nH][nH]1 [CMB-087229-5] | – | 123 | – | 550 | 310
40 | O=c1cc(CS(=O)(=O)c2cc(Cl)cc(Cl)c2)[nH][nH]1 [CMB-087235-1] | 360 | 130 | 760 | – | –
41 | O=c1cc(CS(=O)(=O)c2cc(Cl)cc(Cl)c2)[nH][nH]1 [CMB-087235-2] | – | 132 | – | 670 | 1410
42 | CCc1ccc(OCc2cc(=O)[nH][nH]2)cc1 [CMB-087241-1] | 3290 | 88 | 1960 | – | –
43 | O=c1cc(COc2ccc(Cl)c(Cl)c2)[nH][nH]1 [CMB-087242-1] | 130 | 136 | 580 | – | –
44 | O=c1cc(COc2cc(C(F)(F)F)cc(C(F)(F)F)c2)[nH][nH]1 [CMB-087260-1] | 130 | 120 | 580 | – | –
45 | Cn1[nH]c(COc2cc(Cl)cc(C(F)(F)F)c2)cc1=O [CMB-087264-1] | 6670 | 109 | 5130 | – | –
46 | Cn1[nH]c(COc2ccc(Cl)cc2)cc1=O [CMB-087362-1] | 7600 | 107 | 5850 | – | –
47 | Cn1c(COc2cc(Cl)cc(Cl)c2)cc(=O)n1C [CMB-087363-1] | > 32000 | – | – | – | –
48 | O=c1cc(COc2cc(F)cc(F)c2)[nH][nH]1 [CMB-087627-1] | 3210 | 125 | 1070 | – | –
49 | O=c1cc(COc2cc(Br)cc(Br)c2)[nH][nH]1 [CMB-087628-1] | 1540 | 125 | 510 | – | –
50 | O=c1cc(COc2cccc(Br)c2)[nH][nH]1 [CMB-087642-1] | 3060 | 144 | 1020 | – | –
